Columns and labels:
[1] = estimated; cited from earlier work
[2] = tested on: neutral lipid in and on Bruch's membrane [ブルッフ膜内及びブルッフ膜上の中性脂質]; test: Oil red O (ORO) staining of neutral lipid in and on Bruch's membrane, aged macaques with naturally occurring age-related maculopathy; assay type: in vivo, cynomolgus macaque (Macaca fascicularis); details: injected eye; 6 monthly intravitreal injections, total 625 μg; after 6 months; vs scrambled L-4F
[3] = tested on: esterified cholesterol in Bruch's membrane [ブルッフ膜内のエステル型コレステロール]; test: Filipin fluorescence of esterified cholesterol in Bruch's membrane, aged macaques; assay type: in vivo, cynomolgus macaque (Macaca fascicularis); details: injected eye; 6 monthly intravitreal injections, total 625 μg; vs scrambled L-4F
[4] = tested on: membrane attack complex (MAC, C5b-9) [膜侵襲複合体(MAC、C5b−9)]; test: Immunohistochemistry of membrane attack complex in Bruch's membrane and choriocapillaris, aged macaques; assay type: in vivo, cynomolgus macaque (Macaca fascicularis); details: injected eye; 6 monthly intravitreal injections, total 625 μg; vs scrambled L-4F
[5] = tested on: complement factor D (CFD) [補体因子D(CFD)]; test: Immunohistochemistry of complement factor D, aged macaques; assay type: in vivo, cynomolgus macaque (Macaca fascicularis); details: injected eye; 6 monthly intravitreal injections, total 625 μg; vs scrambled L-4F
Bruch's membrane [ブルッフ膜] = test: Bruch's membrane thickness and integrity by electron microscopy, aged macaques; assay type: in vivo, cynomolgus macaque (Macaca fascicularis)
[6] = tested on: fellow non-injected eye [もう片方の非注射側の眼]; test: Effect in the fellow non-injected eye (staining and thickness, figures 2 to 6), aged macaques; assay type: in vivo, cynomolgus macaque (Macaca fascicularis); details: after 6 monthly intravitreal injections (figures 2 to 6)
[7] = Tolerability and adverse events of intravitreal injection, aged macaques; assay type: in vivo, cynomolgus macaque (Macaca fascicularis); details: all macaques; 6 monthly intravitreal injections
[8] = tested on: high-sensitivity C-reactive protein (hsCRP) [高感度C−反応性タンパク質(hsCRP)]; test: Blood level of high-sensitivity C-reactive protein, aged macaques; assay type: in vivo, cynomolgus macaque (Macaca fascicularis); details: 6 monthly intravitreal injections
[9] = tested on: geographic atrophy [地図状萎縮]; details: 10 mg intravitreal once a month, 18 months, cited from earlier work

## ベバシズマブ: anti-VEGF antibody or fragment
[1]
  intravitreal half-life: ~235 h

## アフリベルセプト: soluble fusion protein comprising extracellular domains of VEGFR
[1]
  intravitreal half-life: ~216 h

## Ac−DWFKAFYDKVAEKFKEAF−NH2 (Ac-DWFKAFYDKVAEKFKEAF-NH2) [L−4F]
[2]
  reduction of lipid deposits from Bruch's membrane (oil red O staining) compared with placebo-injected eyes: ~56%
[3]
  reduction of esterified cholesterol in Bruch's membrane (filipin fluorescence, semiquantitative) compared with placebo-injected eyes: ~68%
[4]
  reduction of MAC (C5b-9) level in Bruch's membrane and choriocapillaris compared with eyes injected with scrambled peptide: ~58%
[5]
  reduction of complement factor D level compared with eyes injected with scrambled peptide: ~41%
Bruch's membrane [ブルッフ膜]; L-4F-injected eye, temporal outer macula, post mortem, printed 1.31μm±SE0.11, placebo (scrambled L-4F) 1.73μm±SE0.02
  thickness of Bruch's membrane: 1.31 μm
Bruch's membrane [ブルッフ膜]; after removal of lipid deposits, confirmed by electron microscopy
  Bruch's membrane integrity: BrMの完全性が回復し
Bruch's membrane [ブルッフ膜]; injected eye, temporal outer macula, vs scrambled L-4F
  reduction of Bruch's membrane thickness compared with placebo-injected eyes: ~24%
[6]
  effect on the fellow non-injected eye relative to the injected eye: 同様の効果を有していた
[7]
  tolerability: 十分耐性があり
[8]
  change in hsCRP blood level compared with the day before the first injection: hsCRPの血中レベルを増加させなかった

## ランパリズマブ: antigen-binding fragment (Fab) of a humanized monoclonal antibody targeting complement factor D
[9]; CFI biomarker-positive patients
  reduction of geographic atrophy area, CFI biomarker-positive subgroup: ~44%
[9]; one eye
  reduction of geographic atrophy area in the injected eye compared with placebo patients: ~20%

## ラニビズマブ: anti-VEGF antibody or fragment
[1]
  intravitreal half-life: ~170 h
